From ChEMBL document CHEMBL3745655, “Novel carbocyclic nucleoside analogs suppress glomerular mesangial cells proliferation and matrix protein accumulation through ROS-dependent mechanism in the diabetic milieu. II. Acylhydrazone-functionalized pyrimidines” (Bioorg Med Chem Lett, 2016)
Activity calls are given as the source filed them. No cut-off for these calls is given here.

How the values were obtained:
Assay type in all cases: functional
[1] = Antidiabetic activity in 24 hrs serum-deprived rat glomerular mesangial cells assessed as reduction of high glucose-induced fibronectin and beta-actin expression ratio at 0.5 uM after 48 hrs by Western blot analysis relative to control
[2] = Antidiabetic activity in 24 hrs serum-deprived rat glomerular mesangial cells assessed as reduction of high glucose-induced fibronectin and beta-actin expression ratio at 1 uM after 48 hrs by Western blot analysis relative to control
[3] = Antidiabetic activity in 24 hrs serum-deprived rat glomerular mesangial cells assessed as reduction of high glucose-induced fibronectin and beta-actin expression ratio at 5 uM after 48 hrs by Western blot analysis relative to control
[4] = Antidiabetic activity in 24 hrs serum-deprived rat glomerular mesangial cells assessed as reduction of high glucose-induced fibronectin and beta-actin expression ratio at 0.25 uM after 48 hrs by Western blot analysis relative to control
Rattus norvegicus = organism: Rattus norvegicus; test: Protection against high glucose-induced increase of cell proliferation in rat glomerular mesangial cells after 48 hrs by MTT assay
[5] = Antidiabetic activity in 24 hrs serum-deprived rat glomerular mesangial cells assessed as reduction of high glucose-induced ROS production at 5 uM after 48 hrs by DHE staining
[6] = Antidiabetic activity in 24 hrs serum-deprived rat glomerular mesangial cells assessed as reduction of high glucose-induced ROS production at 1 uM after 48 hrs by DHE staining

Compound | Ratio [1] | Ratio [2] | Ratio [3] | Ratio [4] | Activity (Rattus norvegicus) | Activity [5] | Activity [6]
CCOC(=O)[C@H]1CC(=O)C[C@H]1C(=O)OCC | 79.8 | 88.9 | 84.2 | 81.8 |  |  | 
Cc1cn(CCC(=O)NN)c(=O)nc1O | 89.2 | 94 | 102 |  |  |  | 
Cc1cn(CCC(=O)NN=C2CCCC2)c(=O)nc1O | 118 | 126 | 127 |  |  |  | 
NNC(=O)CCn1ccc(N)nc1=O | 76.5 | 81.6 | 80.8 |  |  |  | 
NNC(=O)CCn1ccc(O)nc1=O | 101 | 80.5 | 85.4 |  | Active | Active | 
Nc1ccn(CCC(=O)NN=C2CCCC2)c(=O)n1 | 218 | 213 | 275 |  |  |  | 
O=C(CCn1ccc(O)nc1=O)NN=C1CCCC1 | 100 | 84.8 | 64.3 |  | Active |  | Active
O=C1CCCC1 | 101 | 114 | 129 | 82.8 |  |  | 
O=C1C[C@H](C(=O)O)[C@H](C(=O)O)C1 | 149 | 145 | 121 | 129 |  |  | 
CCOC(=O)C1CCC/C1=N\NC(=O)CCn1cc(C)c(O)nc1=O (racemic) | 88.8 | 96.5 | 91.6 |  | inactive |  | 
CCOC(=O)C1CCC/C1=N\NC(=O)CCn1ccc(N)nc1=O (racemic) | 111 | 119 | 102 |  |  |  | 
CCOC(=O)C1CCC/C1=N\NC(=O)CCn1ccc(O)nc1=O (racemic) | 127 | 126 | 106 |  |  |  | 
CCOC(=O)C1CCCC1=O (racemic) | 110 | 88.3 | 137 | 109 |  |  | 
CCOC(=O)[C@@H]1CC(=NNC(=O)CCn2cc(C)c(O)nc2=O)C[C@H]1C(=O)OCC (racemic) | 94.2 | 90.8 | 87.6 |  |  |  | 
CCOC(=O)[C@@H]1CC(=NNC(=O)CCn2ccc(N)nc2=O)C[C@H]1C(=O)OCC (racemic) | 98.2 | 96.1 | 80.6 |  | inactive |  | 
CCOC(=O)[C@@H]1CC(=NNC(=O)CCn2ccc(O)nc2=O)C[C@H]1C(=O)OCC (racemic) | 145 | 132 | 94 |  | Active |  | Active
CCOC(=O)[C@@H]1CC(=O)C[C@H]1C(=O)OCC (racemic) | 90.2 | 86.3 | 79.7 | 82.4 |  |  | 
CCOC(=O)[C@H]1C/C(=N\NC(=O)CCn2cc(C)c(O)nc2=O)C[C@H]1C(=O)OCC (racemic) | 91.9 | 97.9 | 81.1 |  |  |  | 
CCOC(=O)[C@H]1C/C(=N\NC(=O)CCn2ccc(N)nc2=O)C[C@H]1C(=O)OCC (racemic) | 95.1 | 91 | 125 |  |  |  | 
CCOC(=O)[C@H]1C/C(=N\NC(=O)CCn2ccc(O)nc2=O)C[C@H]1C(=O)OCC (racemic) | 97.5 | 93.7 | 76.5 |  | inactive |  | 
Cc1cn(CCC(=O)N/N=C2\C[C@H](C(=O)O)[C@H](C(=O)O)C2)c(=O)nc1O (racemic) | 80.1 | 72 | 70.7 |  | Active |  | Active
Cc1cn(CCC(=O)NN=C2C[C@@H](C(=O)O)[C@H](C(=O)O)C2)c(=O)nc1O (racemic) | 78.4 | 64.6 | 63.1 |  | Active |  | Active
Nc1ccn(CCC(=O)N/N=C2\C[C@H](C(=O)O)[C@H](C(=O)O)C2)c(=O)n1 (racemic) | 143 | 142 | 113 | 136 |  |  | 
Nc1ccn(CCC(=O)NN=C2C[C@@H](C(=O)O)[C@H](C(=O)O)C2)c(=O)n1 (racemic) | 126 | 128 | 107 | 123 |  |  | 
O=C(CCn1ccc(O)nc1=O)N/N=C1\C[C@H](C(=O)O)[C@H](C(=O)O)C1 (racemic) | 80 | 96.7 | 117 | 75.1 |  |  | 
O=C(CCn1ccc(O)nc1=O)NN=C1C[C@@H](C(=O)O)[C@H](C(=O)O)C1 (racemic) | 116 | 115 | 96.9 | 132 |  |  | 
O=C1C[C@@H](C(=O)O)[C@H](C(=O)O)C1 (racemic) | 143 | 149 | 124 | 135 |  |  | 
